Data published in US20040142851A1, “Hydrazinopeptoids and their uses for treating cancers” (priority 2001, published 2004).
Peptide text beside a SMILES is read from it. * marks the point of attachment. Cbz = O=C(OCc1ccccc1)*

What was measured:
XL2 cells [1] = test: FACS analysis, % of cells blocked in G2/M in XL2 cell cultures; type: cell-based, Xenopus
Protocol: The molecules synthesized were tested in vitro on the proteolytic activities described of the proteasome, then in vivo on Xenopus (XL2) cell cultures. Knowledge of the cell cycle of XL2 cells has made it possible to carry out synchronization experiments and also to evaluate the duration of each of the phases of the cycle. […]

[2] = biological target: purified proteasome (chymotrypsin activity) (Homo sapiens, UniProt P28074); test: Inhibition of the chymotrypsin catalytic activity of the purified proteasome; type: biochemical; details: 2 mM compound
Excerpt: In vitro analyses of the inhibitory potentialities of the Hydrazinoazapeptoids synthesized vis-à-vis the enzyme activities of the proteasome.
The inhibitory potentialities of the hydrazinoazapeptoids have been quantified with respect to the chymotrypsin enzyme activities of the purified proteasome. The results are expressed as percentages of activity inhibition.
Measurement of the inhibitory properties of the synthesized compounds on the chymotrypsin catalytic activity of the purified proteasome.

XL2 cells [3] = test: Fluorescence microscopy analysis of the stages of mitosis; type: cell-based, Xenopus; details: for % Anaphase + Telophase / % Metaphase / % Prophase: 50 cells blocked in mitosis
Protocol: The molecules synthesized were tested in vitro on the proteolytic activities described of the proteasome, then in vivo on Xenopus (XL2) cell cultures. Knowledge of the cell cycle of XL2 cells has made it possible to carry out synchronization experiments and also to evaluate the duration of each of the phases of the cycle.
Observation of the nuclear content makes it possible to determine the different stages of the mitosis. The following results were obtained using 50 cells blocked in mitosis. The first 7 inhibitors were studied using fluorescence microscopy.

[4] = tested on: mouse leukaemia cell cultures; test: Antiproliferative effect on mouse leukaemia cell cultures; type: cell-based
Excerpt: We have analyzed the effect of the retro compounds on mouse leukaemia cell cultures and confirm that among these products, three compounds have an antiproliferative effect. This effect has been observed on two other cell types, rat hepatocytes and a human breast cancer line.

CC(C)C[C@@H](C=O)NC(=O)[C@H](CC(C)C)NC(=O)[C@H](CC(C)C)NC(=O)OCc1ccccc1 [MG132, benzyloxycarbonyl leucinyl-leucinyl-leucinal, reference compound] (Cbz-Leu-Leu-Leu-aldehyde)
% of cells blocked in G2/M (XL2 cells [1]; 50 μM, 7 h): 60.6%

CC(C)CN(CC(=O)NN(CC(C)C)C(=O)C(F)(F)F)NC(=O)OC(C)(C)C [P1, Boc-N^αhLeu-azaLeu-CF3]
inhibition at 2000 µM [2]: 29% | % of cells blocked in G2/M (XL2 cells [1]; 145 μM, 7 h): 9.2% | melting point: 105 °C | % Anaphase + Telophase (XL2 cells [3]): 51% | % Metaphase (XL2 cells [3]): 35% | % Prophase (XL2 cells [3]): 14%

COC(=O)N(CC(C)C)NC(=O)CN(CC(C)C)NC(=O)OC(C)(C)C [P2]
inhibition at 2000 µM [2]: 47% | % of cells blocked in G2/M (XL2 cells [1]; 160 μM, 7 h): 6.7% | % Anaphase + Telophase (XL2 cells [3]): 46% | % Metaphase (XL2 cells [3]): 36% | % Prophase (XL2 cells [3]): 18%

CCCCN(NC(=O)C(=O)OCC)C(=O)CN(CC(C)C)NC(=O)OC(C)(C)C [P3, Boc-N^αhLeu-N-azaNorleu-CO2Et]
inhibition at 2000 µM [2]: 31% | % of cells blocked in G2/M (XL2 cells [1]; 144 μM, 4 h): 14.9% | % of cells blocked in G2/M (XL2 cells [1]; 144 μM, 6 h): 15.2% | % of cells blocked in G2/M (XL2 cells [1]; 144 μM, 8 h): 13.8% | melting point: 105 °C | % Anaphase + Telophase (XL2 cells [3]): 53% | % Metaphase (XL2 cells [3]): 26% | % Prophase (XL2 cells [3]): 21%

CCCCN(NC(=O)C(F)(F)F)C(=O)CN(CC(C)C)NC(=O)OC(C)(C)C [P4, Boc-N^αhLeu-N-azaNorleu-CF3]
inhibition at 2000 µM [2]: 29% | % of cells blocked in G2/M (XL2 cells [1]; 145 μM, 4 h): 16.5% | % of cells blocked in G2/M (XL2 cells [1]; 145 μM, 8 h): 13.4% | % Anaphase + Telophase (XL2 cells [3]): 42% | % Metaphase (XL2 cells [3]): 42% | % Prophase (XL2 cells [3]): 16%

CCOC(=O)C(=O)N(CC(C)C)NC(=O)CN(CC(C)C)NC(=O)OC(C)(C)C [P5, Boc-N^αhLeu-azaLeu-CO2Et]
inhibition at 2000 µM [2]: 32% | % of cells blocked in G2/M (XL2 cells [1]; 144 μM, 7 h): 5.2% | melting point: 147 °C | % Anaphase + Telophase (XL2 cells [3]): 37% | % Metaphase (XL2 cells [3]): 45% | % Prophase (XL2 cells [3]): 18%

CC(C)CN(CC(=O)N(CC(N)=O)CC(C)C)NC(=O)OC(C)(C)C [P6]
inhibition at 2000 µM [2]: 38% | % of cells blocked in G2/M (XL2 cells [1]; 167 μM, 7 h): 9.2% | inhibitory selectivity during the different stages of mitosis (in words) (XL2 cells [3]): mostly blocks cells at the end of mitosis | % Anaphase + Telophase (XL2 cells [3]): 58% | % Metaphase (XL2 cells [3]): 24% | % Prophase (XL2 cells [3]): 18%

CC(C)CN(CC(=O)N(CC(C)C)NC(N)=O)NC(=O)OC(C)(C)C [P7, Boc-N^αhLeu-N-azaLeu-CONH2]
inhibition at 2000 µM [2]: 23% | % of cells blocked in G2/M (XL2 cells [1]; 167 μM, 7 h): 12.3% | melting point: 138 °C | inhibitory selectivity during the different stages of mitosis (in words) (XL2 cells [3]): much less selective | % Anaphase + Telophase (XL2 cells [3]): 38% | % Metaphase (XL2 cells [3]): 35% | % Prophase (XL2 cells [3]): 27%

CC(C)CN(CC(=O)N(CC(C)C)NC(=O)C(F)(F)F)NC(=O)OC(C)(C)C [P8, Boc-N^αhLeu-N-azaLeu-CF3]
inhibition at 2000 µM [2]: 28% | % of cells blocked in G2/M (XL2 cells [1]; 146 μM, 7 h): 19.1% | melting point: 110 °C

CCOC(=O)C(=O)NN(CC(C)C)C(=O)CN(CC(C)C)NC(=O)OC(C)(C)C [P9, Boc-N^αhLeu-N-azaLeu-CO2Et]
inhibition at 2000 µM [2]: 30% | % of cells blocked in G2/M (XL2 cells [1]; 144 μM, 7 h): 14.1%

CC(C)CN(CC(=O)N(CC(C)C)NC(=O)CC#N)NC(=O)OC(C)(C)C [P12]
inhibition at 2000 µM [2]: 48% | % of cells blocked in G2/M (XL2 cells [1]; 156 μM, 7 h): 23.5%

CC(C)CN(CC(=O)N(CC(C)C)NC=O)NC(=O)OC(C)(C)C [P13, Boc-N^αhLeu-N-azaLeu-H]
inhibition at 2000 µM [2]: 35% | % of cells blocked in G2/M (XL2 cells [1]; 174 μM, 7 h): 20.8% | melting point: 124 °C

CC(C)CN(CC(=O)N(CC(C)C)NC(=O)CBr)NC(=O)OC(C)(C)C [P14, Boc-N^αhLeu-N-azaLeu-CH2Br]
% inhibition of chymotrypsin activity of the purified proteasome [2]: 71% | inhibition at 2000 µM [2]: 70% | % of cells blocked in G2/M (XL2 cells [1]; 2 μM, 0.5 h): 48.2% | % of cells blocked in G2/M (XL2 cells [1]; 4 μM, 0.5 h): 44.8% | % of cells blocked in G2/M (XL2 cells [1]; 11 μM, 0.5 h): 47.4% | % of cells blocked in G2/M (XL2 cells [1]; 22 μM, 0.5 h): 46.2% | % of cells blocked in G2/M (XL2 cells [1]; 45 μM, 0.5 h): 48.3% | % of cells blocked in G2/M (XL2 cells [1]; 91 μM, 0.5 h): 50.2% | % of cells blocked in G2/M (XL2 cells [1]; 137 μM, 1 h): 50.2% | concentration in the medium necessary to obtain a blockage in mitosis (XL2 cells [1]; XL2 cell cultures): 2 µM | percentage of cells blocked in mitosis, compared with ALLN (in words) (XL2 cells [1]; XL2 cell cultures): activity comparable to that of the ALLN

CC(C)CN(CC(=O)N(CC(C)C)/N=C/c1cccc(B(O)O)c1)NC(=O)OC(C)(C)C [P15, Boc-N^αhLeu-N-azaLeu-CH-Ph-m-B(OH)2]
inhibition at 2000 µM [2]: 38% | % of cells blocked in G2/M (XL2 cells [1]; 133 μM, 7 h): 35.8%

CC(C)CN(CC(=O)N(CC(C)C)/N=C/c1ccccc1B(O)O)NC(=O)OC(C)(C)C [P15o, Boc-N^αhLeu-N-azaLeu-CH-Ph-o-B(OH)2]
melting point: 159 °C

CC(C)CN(CC(=O)N(CC(C)C)/N=C/c1ccc(B(O)O)cc1)NC(=O)OC(C)(C)C [P15p, Boc-N^αhLeu-N-azaLeu-CH-Ph-p-B(OH)2]
melting point: 186 °C

CCSCC(=O)NN(CC(C)C)C(=O)CN(CC(C)C)NC(=O)OC(C)(C)C [P16]
inhibition at 2000 µM [2]: 34% | % of cells blocked in G2/M (XL2 cells [1]; 143 μM, 7 h): 24.2%

CC(C)CN(CC(=O)N(Cc1ccccc1)NC(=O)CBr)NC(=O)OC(C)(C)C [P17, Boc-N^αhLeu-N-azaPhe-COCH2Br]
% inhibition of chymotrypsin activity of the purified proteasome [2]: 80% | inhibition at 2000 µM [2]: 70% | % of cells blocked in G2/M (XL2 cells [1]; 21 μM, 0.5 h): 46.8% | % of cells blocked in G2/M (XL2 cells [1]; 42 μM, 0.5 h): 47.3% | % of cells blocked in G2/M (XL2 cells [1]; 85 μM, 0.5 h): 50.9% | % of cells blocked in G2/M (XL2 cells [1]; 127 μM, 0.5 h): 42.8% | % of cells blocked in G2/M (XL2 cells [1]; 127 μM, 1 h): 41.7% | % of cells blocked in G2/M (XL2 cells [1]; 127 μM, 2 h): 38.3% | percentage of cells blocked in mitosis, compared with ALLN (in words) (XL2 cells [1]; XL2 cell cultures): activity comparable to that of the ALLN | melting point: 135 °C

BrH2COC—N^αhPhe-N-azaLeu-Z [PR2]
effect on proliferation (in words) [4]: inhibit proliferation | effect on viability of the cells / cell death (in words) [4]: cause cell death

BrH2COC—N^αhPhe-azaLeu-Z [PR3]
effect on proliferation (in words) [4]: inhibit proliferation | effect on viability of the cells / cell death (in words) [4]: cause cell death

F3COC—N^αhLeu-N-azaLeu-Z [PR5]
effect on proliferation (in words) [4]: inhibit proliferation | effect on viability of the cells / cell death (in words) [4]: cause cell death

PhCO—N^αhLeu-N-azaLeu-CF3 [P11]
% inhibition of chymotrypsin activity of the purified proteasome [2]: 40% | % of cells blocked in G2/M (XL2 cells [1]; 144 μM, 7 h): 17.2%

PhCO—N^αhLeu-N-azaLeu-CO2Et [P10]
% inhibition of chymotrypsin activity of the purified proteasome [2]: 42% | % of cells blocked in G2/M (XL2 cells [1]; 143 μM, 7 h): 23.1%

Z-N^αhLeu-N-azaLys-COCH2Br [P22]
effect on proliferation (in words) [4]: inhibit proliferation | effect on viability of the cells / cell death (in words) [4]: cause cell death

Z-N^αhLeu-N-azaPhe-CH2Br [P21]
effect on proliferation (in words) [4]: proliferation inhibitors | effect on viability of the cells / cell death (in words) [4]: do not affect the viability of the cells

m-B(OH)2-Ph-HC═N^αhPhe-N-azaLeu-Z [PR8]
effect on proliferation (in words) [4]: inhibit proliferation | effect on viability of the cells / cell death (in words) [4]: cause cell death

o-B(OH)2-Ph-HC═N^αhLeu-N-azaLeu-Z [PR6]
effect on proliferation (in words) [4]: proliferation inhibitors | effect on viability of the cells / cell death (in words) [4]: do not affect the viability of the cells

o-B(OH)2-Ph-HC═N^αhPhe-N-azaLeu-Z [PR7]
effect on proliferation (in words) [4]: proliferation inhibitors | effect on viability of the cells / cell death (in words) [4]: do not affect the viability of the cells
